Results reported in patent publication US5386832A, “Liver function breath test using aromatic amino acids” (New England Deaconess Hospital, priority 1993, dated 1995).
“And” between values parts separate entries of the source, which are not always exact repeats. Equal entries are not always repeated.

Tested on: liver function
Experiment: breath test: oral 13C-phenylalanine, labeled CO2 in expired breath
Type: in vivo, patient
Conditions: 100 mg oral; for maximum percent dose oxidized within 10 minutes / cumulative percent dose oxidized: group mean; for cumulative percent dose oxidized: 1 hr; for Max. % Dose Oxidized/10 min. / Cumulative 1 hr % Dose Oxidized: overnight fast; for Max. % Dose Oxidized/10 min.: breath every ten minutes for one hour; for Cumulative 1 hr % Dose Oxidized: over one hour
From the text: All of the participants in the test are first required to fast overnight. This minimizes metabolic effects of meal absorption and the contribution of endogenous label appearing in the breath from natural levels of the endogenous isotope in the diet. While the preferred isotope for use in the test is ^13 C, other carbon isotopes (or even nitrogen isotopes) could be used. At least two baseline breath samples are collected and the mean isotope value in these samples is used as a background. This background is subtracted from the ^13 C levels determined following isotopic administration in order to obtain the change in ^13 C level.
All breath samples, both those collected prior to administration of the isotope and those after administration, are collected with a commercially available breath sampler such as a Quintron AlveoSampler. These samplers have a mouthpiece and a collection bag with a one-way valve there between. The breath samples are trapped in a syringe and the contents of the syringe are injected into a […] evacuation tube such as a Exetainer tube.
In the preferred mode of the invention, ^13 C-phenylalanine is used as the isotope tracer. One hundred mg doses of L-1-^13 C-phenylalanine are dissolved in 50 ml of water and the dose is administered orally. The dose bottle is washed with another 50ml of water and the wash is administered to the patient to make sure that all the phenylalanine was released from the dose bottle. Although intravenous or intramuscular administration of the isotope tracer could be used, the oral dose acts sufficiently and is much easier to administer.
Breath samples are collected every ten minutes for one hour after dosage. The amount of labeled isotope is measured using an isotope ratio mass spectrometer such a Europa Scientific Gas Isotope Ratio Mass Spectrometer (Europa Scientific, Inc., Cincinnati, Ohio). The ratio of ^13 C-CO2 to ^12 C-CO2 (mass ratio 45:44) is measured and compared to a reference CO2 tank. The reference CO2 is calibrated to the international PDB standard and the amount of labeled ^13 C is determined by the following formula
The mean Atom % ^13 C values are subtracted to determine the Atom % Excess ^13 C. The % Dose Oxid (or percent dose oxidized) is calculated from formulas 2 and 3.
Total ^13 C Excreted[…]%^13 C(from AUC)×5×(time in
min.)×Body Surface Area (m^2) (2)
% Dose Oxid=Total ^13 C Excreted/Dose (mmoles)×100% (3)
Two groups of subjects were used to test the efficacy of the present system. The first group contained 16 normal subjects while the second had 12 patients with various levels of liver disease.

[1] = 12 patients with liver disease, P<0.05 vs control
[2] = control group, 16 normal subjects, P<0.05 vs patients
[3] = individual control (normal) subjects 1-16
[4] = individual patients 17-28 with liver disease

maximum percent dose oxidized within 10 minutes [1]: 0.50±0.27% | cumulative percent dose oxidized [1]: 1.82±0.93% | maximum percent dose oxidized within 10 minutes [2]: 2.15±0.84% | cumulative percent dose oxidized [2]: 7.62±2.87%
SMILES: N[C@@H](Cc1ccccc1)[13C](=O)O [L-1-^13 C-phenylalanine]
Max. % Dose Oxidized/10 min. [3]: 2.46% and 4.53% and 1.48% and 1.57% and 2.81% and 2.82% and 1.20% and 2.31% and 1.05% and 1.65% and 2.19% and 2.37% and 2.60% and 2.11% and 1.75% | Cumulative 1 hr % Dose Oxidized [3]: 8.56% and 15.53% and 3.96% and 6.52% and 7.14% and 9.86% and 11.12% and 3.78% and 7.34% and 4.44% and 6.21% and 7.78% and 7.71% and 7.50% and 7.57% and 6.83% | Max. % Dose Oxidized/10 min. [4]: 0.43% and 0.62% and 0.36% and 0.93% and 0.49% and 0.17% and 0.38% and 0.58% and 1.09% and 0.46% | Cumulative 1 hr % Dose Oxidized [4]: 2.16% and 2.81% and 1.25% and 2.00% and 1.59% and 0.51% and 1.29% and 1.46% and 0.61% and 2.22% and 3.88% and 2.02%
